Experimental data as given in patent publication EP1140904B1, “FARNESYL PROTEIN TRANSFERASE INHIBITORS” (SCHERING CORPORATION, priority 1998, dated 2000).
Read-outs that look alike come from different tables or passages of the source.

What was measured:
[1] = molecular target: farnesyl protein transferase (Homo sapiens, UniProt P49354+P49356); experiment: FPT IC50 (inhibition of farnesyl protein transferase, in vitro enzyme assay); format: biochemical; conditions: procedures of WO 95/10516
Method: FPT IC50 (inhibition of farnesyl protein transferase, in vitro enzyme assay) was determined following the assay procedures described in WO 95/10516, published April 20, 1995. GGPT IC50 (inhibition of geranylgeranyl protein transferase, in vitro enzyme assay), Cell Mat Assay, COS Cell IC50 (Cell-Based Assay), and anti-tumor activity (in vivo anti-tumor studies) could be determined by the assay procedures described in WO 95/10516. The disclosure of WO 95/10516 is incorporated herein by reference thereto.

Human tumor cells = experiment: Soft Agar Assay (anchorage-independent growth, colony count after MTT staining); format: cell-based
Method: Anchorage-independent growth is a characteristic of tumorigenic cell lines. Human tumor cells can be suspended in growth medium containing 0.3% agarose and an indicated concentration of a farnesyl transferase inhibitor. The solution can be overlayed onto growth medium solidified with 0.6% agarose containing the same concentration of farnesyl transferase inhibitor as the top layer. After the top layer is solidified, plates can be incubated for 10-16 days at 37°C under 5% CO2 to allow colony outgrowth. After incubation, the colonies can be stained by overlaying the agar with a solution of MTT (3-[4,5-dimethyl-thiazol-2-yl]-2,5-diphenyltetrazolium bromide, Thiazolyl blue) (1 mg/mL in PBS). Colonies can be counted and the IC50's can be determined.

[2] = colony outgrowth 10-16 days at 37°C under 5% CO2, read-out: Soft Agar IC50

Compound	IC50 [1]	IC50 (Human tumor cells; [2])	IC50 (Human tumor cells; read-out: Soft Agar IC50)
CC(C)NC(=O)N1CCN([C@@H]2c3ccc(Cl)cc3CCc3cc(Br)cnc32)C[C@@H]1C(=O)N1CCC[C@@H](Cn2ccnc2)C1 [Example 17]	–	0.5 to 30 nM	–
CC(C)(C)OC(=O)N1CCN(C2c3ccc(Cl)cc3CCc3cc(Br)cnc32)C[C@@H]1C(=O)N1CCCCC1CCCn1ccnc1 (stereo partly drawn) [Example 145, 1,1-DIMETHYLETHYL 4-(3-BROMO-8-CHLORO-6,11-DIHYDRO-5H-BENZO[5,6]CYCLOHEPTA[1,2-b]PYRIDIN-11-YL)-2(R)-[[2-[3-(1H-IMIDAZOL-1-YL)PROPYL]-1-PIPERIDINYL]CARBONYL]-1-PIPERAZINECARBOXYLATE]	0.04 to 2.7 nM	–	0.5 to 30 nM
CC(C)(C)OC(=O)N1CCN([C@H]2c3ccc(Cl)cc3CCc3cc(Br)cnc32)C[C@@H]1C(=O)N1CCCCC1CCn1ccnc1 (stereo partly drawn) [Example 138, 1,1-DIMETHYLETHYL 4-(3-BROMO-8-CHLORO-6,11-DIHYDRO-5H-BENZO[5,6]CYCLOHEPTA[1,2-b]PYRIDIN-11(S)-YL)-2(R)-[[2-[2-(1H-IMIDAZOL-1-YL)ETHYL]-1-PIPERIDINYL]CARBONYL]-1-PIPERAZINECARBOXYLATE]	0.04 to 2.7 nM	–	0.5 to 30 nM
CC(C)(C)NC(=O)N1CCN([C@@H]2c3ccc(Cl)cc3CCc3cc(Br)cnc32)C[C@@H]1C(=O)N1CCC[C@H](Cn2ccnc2)C1 [Example 18]	–	0.5 to 30 nM	–
CC(C)(C)OC(=O)N1CCN(C2c3ccc(Cl)cc3CCc3cc(Br)cnc32)C[C@@H]1C(=O)N1CCCCC1CCn1ccnc1 (stereo partly drawn) [Example 74, 1,1-DIMETHYLETHYL-4-(3-BROMO-8-CHLORO-6,11-DIHYDRO-5H-BENZO[5,6]CYCLOHEPTA[1,2-b]PYRIDIN-11-YL)-2(R)-[[2-[2-(1H-IMIDAZOL-1-YL)ETHYL]-1-PIPERIDINYL]CARBONYL]-1-PIPERAZINECARBOXYLATE]	0.04 to 2.7 nM	–	0.5 to 30 nM
CC(C)(C)NC(=O)N1CCN(C2c3ccc(Cl)cc3CCc3cc(Br)cnc32)CC1C(=O)N1CCCC(Cn2ccnc2)C1 (stereo not drawn) [Example 16]	–	0.5 to 30 nM	–

Further lines, with some results ahead:

IC50 [1]	IC50 (Human tumor cells; [2])	Compound	IC50 (Human tumor cells; read-out: Soft Agar IC50)
0.04 to 2.7 nM	0.05 to 30 nM	Cc1cn(C[C@@H]2CCCN(C(=O)[C@H]3CN(C4c5ccccc5CCc5ccccc54)CCN3C(=O)OC3CCCCC3)C2)cn1 [Example 414]	–
0.04 to 2.7 nM	0.05 to 30 nM	Cc1cn(CC2CCCN(C(=O)C3CN(C4c5ccc(Cl)cc5CCc5cccnc54)CCN3C(=O)OCC(C)(C)C)C2)cn1 (stereo not drawn) [Example 411]	–
–	0.5 to 30 nM	O=C(C1CN(C2c3ccc(Cl)cc3CCc3cc(Br)cnc32)CCN1C(=O)OC1CCCCC1)N1CCCC(Cn2ccnc2)C1 (stereo not drawn) [Example 15]	–
–	0.5 to 30 nM	CC(C)OC(=O)N1CCN(C2c3ccc(Cl)cc3CCc3cc(Br)cnc32)CC1C(=O)N1CCCC(Cn2ccnc2)C1 (stereo not drawn) [Example 14]	–
–	0.5 to 30 nM	CC(C)(C)OC(=O)N1CCN(C2c3ccc(Cl)cc3CCc3cc(Br)cnc32)CC1C(=O)N1CCCC(Cn2ccnc2)C1 (stereo not drawn) [Example 10]	–
0.04 to 2.7 nM	0.05 to 30 nM	Cc1cn(CC2CCCN(C(=O)C3CN(C4c5ccc(Cl)cc5CCc5ccc[n+]([O-])c54)CCN3C(=O)OC3CCCCC3)C2)cn1 (stereo not drawn) [Example 387]	–
–	0.5 to 30 nM	CC(C)OC(=O)N1CCN([C@@H]2c3ccc(Cl)cc3CCc3cc(Br)cnc32)C[C@@H]1C(=O)N1CCC[C@H](Cn2ccnc2)C1 [Example 19]	–
0.04 to 2.7 nM	0.05 to 30 nM	Cc1cn(CC2CCCN(C(=O)C3CN(C4c5ccc(Cl)cc5CCc5cc(Br)cnc54)CCN3C(=O)Cc3ccc(F)cc3)C2)cn1 (stereo not drawn) [Example 197]	–
